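Cells were grown in 96-well plates and exposed to each compound for 48 hours at five concentrations; endpoints were interpolated linearly between bracketing concentrations, or set to the highest concentration if not reached. TGI marks complete inhibition of growth.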
How the values were obtained:
Experiment in all cases: NCI tumour cell line growth inhibition, 48 h
HOP-18 NSCLC = test system: HOP-18 NSCLC
P388/ADR leukemia = test system: P388/ADR leukemia
SN12K1 renal = test system: SN12K1 renal
XF 498 CNS = test system: XF 498 CNS
P388 leukemia = test system: P388 leukemia
RXF-631 renal = test system: RXF-631 renal

Compound	TGI (HOP-18 NSCLC) [µM]	TGI (P388/ADR leukemia) [µM]	TGI (SN12K1 renal) [µM]	TGI (XF 498 CNS) [µM]	TGI (P388 leukemia) [µM]	TGI (RXF-631 renal) [µM]
O=C(NCCCl)O/N=C/c1cccnc1	> 100	> 100	> 100	> 100		
O[C@H]1[C@H](O)[C@@H](O)CN2CC[C@H](O)[C@H]12	> 100	> 100	> 100	> 100	> 100	
O=C(NN1C(=O)CS(=O)(=O)C1c1ccc(C(F)(F)F)cc1)c1ccncc1 (stereo unspecified)	> 100			> 100		
CCOC(=O)/C=C1/C(CCCOCc2ccccc2)C2CCCC23CC2(CCN13)OCCO2 (stereo unspecified)	50			26.8		94.6
O=C1NC(O)CCN1C1OC(CO)C(O)C1O (stereo unspecified)	> 250	> 250	> 250	> 250	> 250	
CCC(C)(C)n1c(C)nc2c1C(=O)c1ccccc1C2=O				46.7		
COc1ccc(CC(N)=O)cc1OC	> 1250	> 1250	> 1250	> 1250	> 1250	
COc1ccc(NC(=O)CSc2nnc(-c3ccc(NC(C)=O)cc3)o2)cc1	34.9					
CCOC(=O)CNC(=O)NC12CC3CC(CC(C3)C1)C2	537	> 550	503	246	430	
Nc1c(S(=O)(=O)c2ccc(Cl)cc2)c2nc3ccccc3nc2n2ccnc12	79.3			> 100		
CN1Cc2c(nc(-c3ccccc3)c[n+]2[O-])N(C)C1	> 100			> 100		> 100

— PubChem BioAssay (NCI)
